Test results published in patent US6767895B2 (priority 2000, dated 2004).

What was measured:
[1] = in vivo
[2] = system: mice; conditions: mouse, in vivo
[3] = system: goldfish; conditions: in vivo

Substance	activity in formalin test (licking time) [1]	effects observed shortly after injection in mice [2]	effects observed shortly after injection in goldfish [3]
Gly-Xaa3-Ser-Phe-Cys-Lys-Ala-Asn-Gly-Lys-Xaa3-Cys-Ser-Xaa5-His-Ala-Asp-Cys-Cys-Asn-Cys-Cys-Leu-Ser-Gly-Ile-Cys-Lys-Xaa3-Ser-Thr-Asn-Val-Ile-Leu-Xaa3-Gly-Cys-Ser-Thr-Ser-Ser-Phe-Phe-Arg-Ile [R11.14]	active	–	–
Xaa2-Cys-Lys-Thr-Asn-Lys-Met-Ser-Cys-Ser-Leu-His-Xaa1-Xaa1-Cys-Cys-Arg-Phe-Arg-Cys-Cys-Phe-His-Gly-Lys-Cys-Gln-Thr-Ser-Val-Phe-Gly-Cys-Xaa4-Val-Asp-Xaa3 [R11.19]	–	running and jumping in short duration immediately followed by convulsion with back legs kicking, copius urination, coma and death	gasping (gills opening widely), followed by swimming backward or in circular and/or vertical motion, imbalanced swimming (body tilting), lying almost flat near the bottom and death
